Results as given in patent US6887869B2, “Mikanolide derivatives, their preparation and therapeutic uses” (Societe de Conseils de Recherches et d'Applications …, priority 2001, dated 2005).

Key:
[1] = system: DU-145 (human prostate cancer cells); test: Measurement of cell proliferation (WST1), DU-145; type: cell-based; conditions: DU-145, 96 hours treatment, read-out: IC50 inhibitory concentration, proliferation of DU-145 cell lines
Description: (§1) DU-145 (human prostate cancer cells), HT29 (cancer of the colon) and Mia-PaCa2 (human pancreatic cancer cells) were acquired from the American Tissue Culture Collection (Rockville, Md., USA).
(§2) Measurement of Cell Proliferation
(§3) The cells placed in 80 μl of Dulbecco's modified Eagle medium (Gibco-BRL, Cergy-Pontoise, France) completed with 10% of foetal calf serum inactivated by heating (Gibco-BRL, Cergy-Pontoise, France), 50000 units/l of penicillin and 50 mg/l streptomycin (Gibco-BRL, Cergy-Pontoise, France), and 2 mM of glutamine (Gibco-BRL, Cergy-Pontoise, France) were seeded on a 96-well plate on day 0. The cells were treated on day 1 for 96 hours with increasing concentrations of each of the compounds to be tested. At the end of the of this period, quantification of the cell proliferation is evaluated by a calorimetric test based on the cleavage of the tetrazolium salt WST1 by mitochondrial dehydrogenases in viable cells leading to the formation of formazan (Boehringer Mannheim, Meylan, France). These tests are carried out in duplicate with 8 determinations per concentration tested. The products are solubilised in dimethylsulphoxide (DMSO) at 10^−2 M and finally used in culture with 0.5% DMSO.

[2] = system: Mia-PaCa2 (human pancreatic cancer cells); test: Measurement of cell proliferation (WST1), Mia-PaCa2; type: cell-based; conditions: MIA PaCa-2, Mia-Paca2, 96 hours treatment, read-out: IC50 inhibitory concentration, proliferation of Mia-Paca2 cell lines
Description: as §1, §2, §3

IC50 [1] [µM] | IC50 [2] [µM] | Compound
≤ 30 | ≤ 30 | CN(C)CC1C(=O)OC2CC3(C)OC3C(O)C(N(C)C)C3=CC(OC3=O)C21 (stereo not drawn) [Example 2, 12-dimethylamino-3-dimethylaminomethyl-11-hydroxy-8-methyl-5,9,15-trioxatetracyclo[11.2.1.0^2,6.0^8,10]hexadec-13(16)-ene-4,14-dione]
– | ≤ 30 | CC12CC3OC(=O)C(CN4CCOCC4)C3C3C=C(C(=O)O3)C(N3CCOCC3)C(O)C1O2 (stereo not drawn) [Example 4, 11-hydroxy-8-methyl-12-morpholino-3-morpholinomethyl-5,9,15-trioxatetracyclo[11.2.1.0^2,6.0^8,10]hexadec-13(16)-ene-4,14-dione]
– | ≤ 30 | CC1C(=O)OC2CC3(C)OC3C(O)C(N(C)C)C3=CC(OC3=O)C21 (stereo not drawn) [Example 5, 12-dimethylamino-11-hydroxy-3,8-dimethyl-5,9,15-trioxatetracyclo[11.2.1.0^2,6.0^8,10]hexadec-13(16)-ene-4,14-dione]
≤ 30 | ≤ 30 | CC1CCN(C2C3=CC(OC3=O)C3C(CC4(C)OC4C2O)OC(=O)C3C)CC1 (stereo not drawn) [Example 9, 11-hydroxy-3,8-dimethyl-12-(4-methylpiperidino)-5,9,15-trioxatetracyclo[11.2.1.0^2,6.0^8,10]hexadec-13(16)-ene-4,14-dione]
– | ≤ 30 | CC1C(=O)OC2CC3(C)OC3C(O)C(N3CCCC3)C3=CC(OC3=O)C21 (stereo not drawn) [Example 10, 11-hydroxy-3,8-dimethyl-12-pyrrolidino-5,9,15-trioxatetracyclo[11.2.1.0^2,6.0^8,10]hexadec-13(16)-ene-4,14-dione]
– | ≤ 30 | CC1C(=O)OC2CC3(C)OC3C(O)C(N3CCC(Cc4ccccc4)CC3)C3=CC(OC3=O)C21 (stereo not drawn) [Example 12, 12-(4-benzylpiperidino)-11-hydroxy-3,8-dimethyl-5,9,15-trioxatetracyclo[11.2.1.0^2,6.0^8,10]hexadec-13(16)-ene-4,14-dione]
≤ 30 | ≤ 30 | CC1CCN(C2C3=CC(OC3=O)C3C(CC4(C)OC4C2OC(=O)c2ccccc2)OC(=O)C3C)CC1 (stereo not drawn) [Example 18, 3,8-dimethyl-12-(4-methylpiperidino)-4,14-dioxo-11-phenylcarbonyloxy-5,9,15-trioxatetracyclo[11.2.1.0^2,6.0^8,10]hexadec-13(16)-ene]
– | ≤ 30 | CCOC(=O)OC1C(N2CCC(C)CC2)C2=CC(OC2=O)C2C(CC3(C)OC13)OC(=O)C2C (stereo not drawn) [Example 19, ethyl 3,8-dimethyl-12-(4-methylpiperidino)-4,14-dioxo-5,9,15-trioxatetracyclo[11.2.1.0^2,6.0^8,10]hexadec-13(16)-en-11-yl carbonate]
– | ≤ 30 | CC(C)CSCC1C(=O)OC2CC3(C)OC3C(O)C(SCC(C)C)C3=CC(OC3=O)C21 (stereo not drawn) [Example 20, 11-hydroxy-12-isobutylsulphanyl-3-isobutylsulphanylmethyl-8-methyl-5,9,15-trioxatetracyclo[11.2.1.0^2,6.0^8,10]hexadec-13(16)-ene-4,14-dione]
≤ 30 | ≤ 30 | CC1C(=O)OC2CC3(C)OC3C(OC(=O)C3CCCCC3)C(N(C)C)C3=CC(OC3=O)C21 (stereo not drawn) [Example 24, 12-(dimethylamino)-3,8-dimethyl-4,14-dioxo-5,9,15-trioxatetracyclo[11.2.1.0^2,6.0^8,10]hexadec-13(16)-en-11-yl cyclohexanecarboxylate]
≤ 30 | ≤ 30 | CC1C(=O)OC2CC3(C)OC3C(OC(=O)c3ccc(F)cc3)C(N(C)C)C3=CC(OC3=O)C21 (stereo not drawn) [Example 25, 12-(dimethylamino)-3,8-dimethyl-4,14-dioxo-5,9,15-trioxatetracyclo[11.2.1.0^2,6.0^8,10]hexadec-13(16)-en-11-yl 4-fluorobenzoate]
≤ 30 | ≤ 30 | CCCCCCC(=O)OC1C(N(C)C)C2=CC(OC2=O)C2C(CC3(C)OC13)OC(=O)C2C (stereo not drawn) [Example 27, 12-(dimethylamino)-3,8-dimethyl-4,14-dioxo-5,9,15-trioxatetracyclo[11.2.1.0^2,6.0^8,10]hexadec-13(16)-en-11-yl heptanoate]
≤ 30 | ≤ 30 | CC1C(=O)OC2CC3(C)OC3C(OC(=O)c3ccc(C(F)(F)F)cc3)C(N(C)C)C3=CC(OC3=O)C21 (stereo not drawn) [Example 28, 12-(dimethylamino)-3,8-dimethyl-4,14-dioxo-5,9,15-trioxatetracyclo[11.2.1.0^2,6.0^8,10]hexadec-13(16)-en-11-yl 4-(trifluoromethyl)benzoate]
≤ 30 | ≤ 30 | CC1C(=O)OC2CC3(C)OC3C(OC(=O)c3cccs3)C(N(C)C)C3=CC(OC3=O)C21 (stereo not drawn) [Example 29, 12-(dimethylamino)-3,8-dimethyl-4,14-dioxo-5,9,15-trioxatetracyclo[11.2.1.0^2,6.0^8,10]hexadec-13(16)-en-11-yl 2-thiophenecarboxylate]
≤ 30 | ≤ 30 | CC1C(=O)OC2CC3(C)OC3C(OC(=O)CC(C)(C)C)C(N(C)C)C3=CC(OC3=O)C21 (stereo not drawn) [Example 30, 12-(dimethylamino)-3,8-dimethyl-4,14-dioxo-5,9,15-trioxatetracyclo[11.2.1.0^2,6.0^8,10]hexadec-13(16)-en-11-yl 3,3-dimethylbutanoate]
≤ 30 | ≤ 30 | CC1C(=O)OC2CC3(C)OC3C(OC(=O)c3cc4ccccc4s3)C(N(C)C)C3=CC(OC3=O)C21 (stereo not drawn) [Example 31, 12-(dimethylamino)-3,8-dimethyl-4,14-dioxo-5,9,15-trioxatetracyclo[11.2.1.0^2,6.0^8,10]hexadec-13(16)-en-11-yl 1-benzothiophene-2-carboxylate]
≤ 30 | ≤ 30 | CC1C(=O)OC2CC3(C)OC3C(OC(=O)c3ccco3)C(N(C)C)C3=CC(OC3=O)C21 (stereo not drawn) [Example 32, 12-(dimethylamino)-3,8-dimethyl-4,14-dioxo-5,9,15-trioxatetracyclo[11.2.1.0^2,6.0^8,10]hexadec-13(16)-en-11-yl 2-furoate]
– | ≤ 30 | CC1C(=O)OC2CC3(C)OC3C(OC(=O)c3ccc([N+](=O)[O-])o3)C(N(C)C)C3=CC(OC3=O)C21 (stereo not drawn) [Example 33, 12-(dimethylamino)-3,8-dimethyl-4,14-dioxo-5,9,15-trioxatetracyclo[11.2.1.0^2,6.0^8,10]hexadec-13(16)-en-11-yl 5-nitro-2-furoate]
– | ≤ 30 | CC1C(=O)OC2CC3(C)OC3C(OC(=O)Cc3cccs3)C(N(C)C)C3=CC(OC3=O)C21 (stereo not drawn) [Example 35, 12-(dimethylamino)-3,8-dimethyl-4,14-dioxo-5,9,15-trioxatetracyclo[11.2.1.0^2,6.0^8,10]hexadec-13(16)-en-11-yl 2-thienylacetate]
– | ≤ 30 | CC1C(=O)OC2CC3(C)OC3C(OC(=O)COc3ccccc3)C(N(C)C)C3=CC(OC3=O)C21 (stereo not drawn) [Example 36, 12-(dimethylamino)-3,8-dimethyl-4,14-dioxo-5,9,15-trioxatetracyclo[11.2.1.0^2,6.0^8,10]hexadec-13(16)-en-11-yl phenoxyacetate]
– | ≤ 30 | CC1C(=O)OC2CC3(C)OC3C(OC(=O)Nc3ccc(C(C)(C)C)cc3)C(N(C)C)C3CC(OC3=O)C21 (stereo not drawn) [Example 37, 8-(dimethylamino)-3,10a-dimethyl-2,6-dioxodecahydro-4,7-methenofuro[3,2-c]oxireno[f]oxacycloundecin-9-yl 4-tert-butylphenylcarbamate]
≤ 30 | ≤ 30 | COc1ccccc1NC(=O)OC1C(N(C)C)C2CC(OC2=O)C2C(CC3(C)OC13)OC(=O)C2C (stereo not drawn) [Example 39, 8-(dimethylamino)-3,10a-dimethyl-2,6-dioxodecahydro-4,7-methenofuro[3,2-c]oxireno[f]oxacycloundecin-9-yl 2-methoxyphenylcarbamate]
≤ 30 | ≤ 30 | CSc1ccccc1NC(=O)OC1C(N(C)C)C2CC(OC2=O)C2C(CC3(C)OC13)OC(=O)C2C (stereo not drawn) [Example 40, 8-(dimethylamino)-3,10a-dimethyl-2,6-dioxodecahydro-4,7-metheno-furo[3,2-c]oxireno[f]oxacycloundecin-9-yl 2(methylthio)phenylcarbamate]
≤ 30 | ≤ 30 | CCOc1ccccc1NC(=O)OC1C(N(C)C)C2CC(OC2=O)C2C(CC3(C)OC13)OC(=O)C2C (stereo not drawn) [Example 41, 8-(dimethylamino)-3,10a-dimethyl-2,6-dioxodecahydro-4,7-methenofuro[3,2-c]oxireno[f]oxacycloundecin-9-yl 2-ethoxyphenylcarbamate]
≤ 30 | ≤ 30 | CC1C(=O)OC2CC3(C)OC3C(OC(=O)Nc3ccsc3)C(N(C)C)C3CC(OC3=O)C21 (stereo not drawn) [Example 42, 8-(dimethylamino)-3,10a-dimethyl-2,6-dioxodecahydro-4,7-methenofuro[3,2-c]oxireno[f]oxacycloundecin-9-yl thien-3-ylcarbamate]
≤ 30 | ≤ 30 | CC1C(=O)OC2CC3(C)OC3C(OC(=O)Nc3csc4ccccc34)C(N(C)C)C3CC(OC3=O)C21 (stereo not drawn) [Example 43, 8-(dimethylamino)-3,10a-dimethyl-2,6-dioxodecahydro-4,7-methenofuro[3,2-c]oxireno[f]oxacycloundecin-9-yl 1-benzothien-3-ylcarbamate]
